In US5641772A, “Condensed diazepinones, processes for preparing them and agents containing these compounds for treating diseases of the central nervous system and for promoting cerebral blood circulation” (Dr. Karl Thomae GmbH, priority 1991, dated 1997):
pKi: −log10 of the molar value.

Legend:
[1] = biological target: T1, M2 (Heart) muscarinic receptors (Rattus norvegicus, UniProt P10980); experiment: Receptor binding test, [3H]NMS, heart (M2); parameters: species or system Male Wistar rats; conditions: for Selectivity ratio (M1 /M2): ratio of Ki M1 (cortex) to Ki M2 (heart); for pKi: in vitro, rat heart, 0.3 nM [3H]NMS, 40 minutes
T1 construct: The cerebral cortex, heart and salivary glands were removed, washed and homogenised; from tissue; host or cells: rat heart homogenate (Wistar, Chbb: THOM)
T1 sequence (P10980 1-466): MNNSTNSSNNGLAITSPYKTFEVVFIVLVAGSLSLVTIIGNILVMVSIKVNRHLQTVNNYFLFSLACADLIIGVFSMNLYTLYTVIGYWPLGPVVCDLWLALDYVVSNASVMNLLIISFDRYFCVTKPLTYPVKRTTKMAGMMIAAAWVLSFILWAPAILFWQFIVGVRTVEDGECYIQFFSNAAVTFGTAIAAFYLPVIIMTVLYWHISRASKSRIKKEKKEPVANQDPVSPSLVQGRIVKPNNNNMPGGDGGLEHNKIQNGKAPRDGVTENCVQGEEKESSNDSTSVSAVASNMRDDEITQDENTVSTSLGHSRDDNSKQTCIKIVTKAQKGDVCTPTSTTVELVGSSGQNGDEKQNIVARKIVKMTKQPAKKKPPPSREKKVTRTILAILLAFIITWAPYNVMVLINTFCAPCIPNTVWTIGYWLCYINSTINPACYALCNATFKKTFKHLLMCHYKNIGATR

[2] = system: arecoline-induced increase in blood pressure; experiment: Arecoline test: CNS-penetration, in vivo (rat), reduction in the arecoline-induced increase in blood pressure; conditions: i.v.
Protocol: Cerebroavailable antimuscarinics block this central effect. […] The trachea is incubated, the animals are respirated with an air/oxygen mixture (80 breaths per minute). The blood pressure is recorded after canulation of the carotid artery by means of a pressure recorder (Bell and Howell Type 4-327-I). The test substances are administered through the jugular vein ([…]). […] The arecoline is administered (in doses of 0.3 mg/kg) at 15 minute intervals. After 2 comparison values, the test substance is injected in increasing doses 5 minutes before the next administration of arecoline. The results obtained were compared with the average starting values and determined as the percentage inhibition.

[3] = system: learning ability and memory performance; conditions: Hunter et al., Sutherland et al., Wishaw; cited from earlier work
[4] = biological target: T2, M1 -receptors of the cortex (Rattus norvegicus, UniProt P08482); experiment: Receptor binding test, [3H]pirenzepine, cerebral cortex (M1); parameters: species or system Male Wistar rats; conditions: in vitro, 1 nM [3H]pirenzepine, 90 minutes
T2 construct: The cerebral cortex, heart and salivary glands were removed, washed and homogenised; from tissue; host or cells: rat cerebral cortex homogenate (Wistar, Chbb: THOM)
T2 sequence (P08482 1-460): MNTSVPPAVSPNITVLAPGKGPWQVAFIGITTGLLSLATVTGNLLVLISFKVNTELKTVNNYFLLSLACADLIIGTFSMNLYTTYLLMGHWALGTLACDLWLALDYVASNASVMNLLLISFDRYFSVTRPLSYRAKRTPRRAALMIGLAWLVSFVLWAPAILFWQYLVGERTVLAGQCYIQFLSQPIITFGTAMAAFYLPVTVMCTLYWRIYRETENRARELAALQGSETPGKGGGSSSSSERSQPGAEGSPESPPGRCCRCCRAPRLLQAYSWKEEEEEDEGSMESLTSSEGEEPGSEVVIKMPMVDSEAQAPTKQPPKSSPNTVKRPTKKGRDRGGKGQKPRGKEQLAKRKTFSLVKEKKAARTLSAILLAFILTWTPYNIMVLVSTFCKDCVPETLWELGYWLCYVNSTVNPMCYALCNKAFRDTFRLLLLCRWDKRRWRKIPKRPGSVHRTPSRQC

[5] = system: learning-impaired old rats; experiment: Effect on the memory in the Morris water maze, learning-impaired 24 months old rats; assay type: in vivo, rat; conditions: 0.2 mg/kg s.c.
Protocol: The tests were carried out using the water maze described by R. G. M. Morris in Learn Motive 12:239-249 (1981) using the test method described therein.
On the first day, rats which were 24 months old and therefore learning-impaired (n=7 per group) were given 0.2 mg/kg of compound D by subcutaneous route whilst another group of these animals were given physiological saline solution (s.c.).

[6] = biological target: T3, M3 (Submandibular gland) muscarinic receptors (Rattus norvegicus, UniProt P08483); experiment: Receptor binding test, [3H]NMS, salivary (submandibular) gland (M3); parameters: species or system Male Wistar rats; conditions: in vitro, 0.3 nM [3H]NMS, 40 minutes
T3 construct: The cerebral cortex, heart and salivary glands were removed, washed and homogenised; from tissue; host or cells: rat salivary (submandibular) gland homogenate (Wistar, Chbb: THOM)
T3 sequence (P08483 whole entry): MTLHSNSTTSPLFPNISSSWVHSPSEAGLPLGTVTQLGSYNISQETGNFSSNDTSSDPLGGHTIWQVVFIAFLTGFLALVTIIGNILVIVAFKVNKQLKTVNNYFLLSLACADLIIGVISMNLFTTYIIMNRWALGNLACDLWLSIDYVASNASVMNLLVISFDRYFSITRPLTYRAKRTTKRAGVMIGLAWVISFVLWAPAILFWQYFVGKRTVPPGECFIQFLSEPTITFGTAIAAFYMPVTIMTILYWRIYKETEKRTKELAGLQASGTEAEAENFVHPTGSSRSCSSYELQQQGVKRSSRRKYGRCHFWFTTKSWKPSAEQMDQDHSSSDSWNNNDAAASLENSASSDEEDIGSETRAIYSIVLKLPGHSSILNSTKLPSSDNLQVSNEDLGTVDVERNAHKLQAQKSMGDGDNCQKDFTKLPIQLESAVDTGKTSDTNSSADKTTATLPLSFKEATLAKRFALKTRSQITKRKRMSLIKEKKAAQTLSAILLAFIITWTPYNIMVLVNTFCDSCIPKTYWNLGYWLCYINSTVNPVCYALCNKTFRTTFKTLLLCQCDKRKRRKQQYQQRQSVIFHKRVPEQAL

Structure (SMILES) | Selectivity ratio (M1 /M2) [1] | other results
CCCC(C)(C)C(=O)N(CC)CCCCC1CCN(CC(=O)N2c3ccccc3C(=O)Nc3cccnc32)CC1 [Substance C, 5,11-dihydro-11-[[4-[4-[(2,2-dimethyl-1-oxopentyl)-ethylamino]butyl]-1-piperidinyl]acetyl]-6H-pyrido[2,3-b][1,4]benzodiazepin-6-one] | 13 | –
CCCC(C)(C)C(=O)N(CC)CCCC1CCN(CC(=O)N2c3ccccc3C(=O)Nc3cccnc32)CC1 [Substance B, 5,11-dihydro-[[4-[3-[(2,2-dimethyl-1-oxopentyl)-ethylamino]-propyl]-1-piperidinyl]acetyl]-6H-pyrido[2,3-b][1,4]benzodiazepin-6-one] | 10 | –
CCN(CCCC1CCN(CC(=O)N2c3ccc(C)cc3C(=O)Nc3cccnc32)CC1)C(=O)C(C)(C)C [Substance E, 5,11-dihydro-8-methyl-11-[[4-[3-[(2,2-dimethyl-1-oxopropyl)-ethylamino]propyl]-1-piperidinyl]acetyl]-6H-pyrido[2,3-b][,1,4]benzodiazepin-6-one] | 10 | –
CN(CCC1CCCN1C)CC(=O)N1c2ccccc2C(=O)Nc2cccnc21 (centres unmarked) [Substance R, 5,11-dihydro-11-[[[2-(1-methyl-2-pyrrolidinyl)-ethyl]-methylamino]acetyl]-6H-pyrido[2,3-b][1,4]-benzodiazepin-6-one] | 2.4 | –
Cc1scc2c1N(C(=O)CCC#CCN1CCCCCC1)c1ccccc1NC2=O [Substance P, 4,9-dihydro-3-methyl-4-[6-(hexahydro-1H-1-azepinyl)-1-oxo-4-hexyn-1-yl]-10H-thieno[3,4-b][1,5]benzodi-azepin-10-one] | 4.6 | –
CCCN(CCC)CC1CCCCN1CCNC(=O)N1c2ccccc2C(=O)Nc2cccnc21.CS(=O)(=O)O (centres unmarked) [Substance L, 5,11-dihydro-11-[[[2-[2-[(dipropylamino)methyl]-1-piperidinyl]ethyl]amino]carbonyl]-6H-pyrido[2,3-b]-[1,4]benzodiazepin-6-one methanesulphonate] | – | effect on arecoline-mediated central effects / increase in blood pressure (in words) [2]: had no effect on the increase in blood pressure caused by arecoline
CN1CCN(CC(=O)N2c3ccccc3C(=O)Nc3cccnc32)CC1 [pirenzepine] | – | learning ability and memory performance (literature) [3]: deterioration in learning ability and memory performance
O=C1Nc2cccnc2N(C(=O)CCC#CCN2CCCCC2)c2ccccc21 [Substance J, 5,11-dihydro-11-[1-oxo-6-(1-piperidinyl)-4-hexyn-1-yl]-6H-pyrido[2,3-b][1,4]benzodiazepin-6-one] | 6.6 | –
CCN(CCCC1CCN(CC(=O)N2c3ccccc3C(=O)Nc3cccnc32)CC1)C(=O)C(C)(C)C [Substance F, 5,11-dihydro-11-[[4-[3-[(2,2-dimethyl-1-oxopropyl)-ethylamino]propyl]-1-piperidinyl]acetyl]-6H-pyrido[2,3-b][1,4]benzodiazepin-6-one] | 14 | –
CCN(CC)CC1CCCCN1CC(=O)N1c2ccccc2C(=O)Nc2cccnc21 (centres unmarked) [Substance H, 11-[[2-[(diethylamino)methyl]-1-piperidinyl]acetyl]-5,11-dihydro-6H-pyrido[2,3-b][1,4]benzodiazepin-6-one] | – | pKi [1]: 7.10; pKi [4]: 6.30
CCCC(C)(C)C(=O)N(CC)CCCC1CCN(CC(=O)N2c3ccc(Cl)cc3C(=O)Nc3cccnc32)CC1 [Substance D, 5,11-dihydro-8-chloro-11-[[4-[3-[(2,2-dimethyl-1-oxopentyl)-ethylamino]propyl]-1-piperidinyl]-acetyl]-6H-pyrido[2,3-b][1,4]benzodiazepin-6-one] | 35 | memory performance versus young control rats ([5]; fourth day, 24 months old rats, n=7): reached the same level as the control groups of young rats; memory performance compared with saline-treated learning-impaired old rats ([5]; observed 4 days, FIG. 1): improved memory performance; reduction of latency period in Morris water maze ([5]; second day, 24 months old rats, n=7): approximately 50%
CCN(CCCC1CCN(CC(=O)N2c3ccc(C)cc3C(=O)Nc3cccnc32)CC1)C(=O)C(C)(C)CC [Substance G, 5,11-dihydro-8-methyl-11-[[4-[3-[(2,2-dimethyl-1-oxobutyl)ethylamino]propyl]-1-piperidinyl]acetyl]-6H-pyrido[2,3-b][1,4]benzodiazepin-6-one] | 24 | –
O=C1Nc2cccnc2N(C(=O)N2CCCC(CCCN3CCCCC3)C2)c2ccccc21 (centres unmarked) [Substance M, 5,11-dihydro-11-[[3-[3-(1-piperidinyl)-1-propyl]-1-piperidinyl]carbonyl]-6H-pyrido[2,3-b][1,4]benzo-diazepin-6-one] | 6.5 | –
CN(CCC1CCCCCN1C)CC(=O)N1c2ccccc2C(=O)Nc2cccnc21 (centres unmarked) [Substance S, 5,11-dihydro-11-[[[2-(1-methyl-hexahydro-1H-2-azepinyl)-ethyl]methylamino]acetyl]-6H-pyrido[2,3-b][1,4]benzodiazepin-6-one] | 5.3 | –
CCN(CCCC1CCN(CC(=O)N2c3ccccc3C(=O)Nc3cccnc32)CC1)C(=O)C(C)(C)CC [Substance A, 5,11-dihydro-11-[[4-[3-[(2,2-dimethyl-1-oxobutyl]-ethylamino]-propyl]-1-piperidinyl]acetyl]-6H-pyrido[2,3-b][1,4]benzodiazepin-6-one] | 20 | –
CCN(CC)CC1CCCCN1CC(=O)N1c2cc(Cl)ccc2C(=O)Nc2cccnc21 (racemic) [Substance K, (±)-9-chloro-11-[[2-[(diethylamino)methyl]-1-piperidinyl]-acetyl]-5,11-dihydro-6H-pyrido[2,3-b]-[1,4]benzodiazepin-6-one] | – | pKi [1]: 7.60; pKi [4]: 6.90; pKi [6]: 6.12
CCN(CC)CC1COCCN1CCCC(=O)N1c2ccccc2C(=O)Nc2cccnc21 (centres unmarked) [Substance Q, 11-[4-[3-[(diethylamino)methyl]-4-morpholinyl]-1-oxo-1-butyl]-5,11-dihydro-6H-pyrido[2,3-b][1,4]-benzodiazepin-6-one] | 2.5 | –
